These results are taken from patent US12195435B2, “5-methylchromone and the preparation method and application thereof” (HAINAN MEDICAL UNIVERSITY, priority 2020, dated 2025).

The target in the experiment is tyrosinase. Description: Determination of the activity of compounds inhibiting tyrosinase (L-tyrosine substrate, absorbance at 475 nm). Conditions: for IC50: L-tyrosine 0.1 mg/mL, tyrosinase 48 U/mL, pH 6.8, 37° C. 30 min, n = 3, read-out: IC50 ± SEM (tyrosinase inhibition); for tyrosinase inhibitory activity (in words, compared with aloesin): comparison with positive control aloesin. The experiment is classed as biochemical. On the procedure: Method for determining the activity of inhibiting tyrosinase: Firstly, adding the sample: 40 μL (10% DMSO, setting different concentrations (0, 25, 50, 100, 200 μg/mL)) into a 96-well plate (aloesin is the positive control), then adding L-tyrosine: 40 μL (0.1 mg/mL, dissolving in 0.1M potassium phosphate buffer solution, pH=6.8), tyrosinase: 40 μL (48 U/mL, dissolving in 0.1M potassium phosphate buffer solution, pH=6.8), and finally diluting the volume to 200 μL with potassium phosphate buffer solution, and detecting the absorbance at 475 nm on 0 min; after incubating at 37° C. for 30 min, measuring the absorbance.

With `Cc1cc(=O)c2c(C)cc(O)cc2o1` [Compound 1-1], the IC50 is 9300 ± 90 µM.

For the compound `CC(=O)Cc1cc(=O)c2c(C)cc(O)c([C@@H]3O[C@H](CO)[C@@H](O)[C@H](O)[C@H]3O)c2o1` [Aloesin, aloesin, reference compound], the IC50 was determined as 2700 ± 40 µM.

As for `Cc1cc(O)cc2oc(C(C)(C)C)cc(=O)c12` [Compound 1-4], the IC50 was 5400 ± 30 µM.

For the compound `CCCc1cc(=O)c2c(C)cc(OC)cc2o1` [Compound 1-5], the IC50 came to 200 ± 70 µM and the “tyrosinase inhibitory activity (in words, compared with aloesin)” value was “higher than the tyrosinase inhibitory activity of aloesin”.

Regarding `CCc1cc(=O)c2c(C)cc(O)cc2o1` [Compound 1-2], the half-inhibitory concentration (IC50) was determined as 6200 ± 70 µM.

In the case of `CCCc1cc(=O)c2c(C)cc(O)cc2o1` [Compound 1-3], the IC50 came to 2400 ± 100 µM.

Consider `CCCc1cc(=O)c2c(C)cc(OCC)cc2o1` [Compound 1-6], for which the IC50 was 600 ± 30 µM and the “tyrosinase inhibitory activity (in words, compared with aloesin)” value was “higher than the tyrosinase inhibitory activity of aloesin”.
